Experimental data: ChEMBL document CHEMBL3867472, “Discovery of benzofuran propanoic acid GPR120 agonists: From uHTS hit to mechanism-based pharmacodynamic effects” (Bioorg Med Chem Lett, 2016)
Calls of active or inactive are those of the source. The rule behind the calls is not given here.

Columns and labels:
[1] = target: T1, Free fatty acid receptor 4 (Homo sapiens) (UniProt Q5NUL3); assay: Agonist activity at human GPR120 expressed in CHOK1 cells measured after 60 mins by IP1-HTRF assay relative to basal level; type: functional, cell-based; set-up: concentration or dose not given beside the values; conditions: CHO-K1
T1 sequence (whole entry): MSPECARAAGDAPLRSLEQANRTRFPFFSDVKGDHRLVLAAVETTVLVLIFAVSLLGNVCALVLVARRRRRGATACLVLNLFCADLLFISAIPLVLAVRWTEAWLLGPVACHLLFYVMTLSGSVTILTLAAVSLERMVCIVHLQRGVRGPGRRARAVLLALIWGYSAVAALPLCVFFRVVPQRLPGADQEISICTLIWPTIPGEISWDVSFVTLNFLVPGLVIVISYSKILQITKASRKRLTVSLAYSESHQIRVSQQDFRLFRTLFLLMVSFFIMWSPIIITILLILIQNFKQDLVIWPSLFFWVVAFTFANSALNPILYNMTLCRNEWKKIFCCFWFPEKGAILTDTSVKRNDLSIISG

[2] = Protein binding in mouse plasma; type: ADME, cell-free; conditions: read-out: PPB (converted)
Mus musculus [3] = assay: In vivo agonist activity at GPR120 in wild-type mouse assessed as target engagement at 100 mg/kg, po; type: functional
Cytochrome P450 2D6 = Cytochrome P450 2D6 (Homo sapiens, UniProt P10635); assay: Inhibition of CYP2D6 (unknown origin); type: ADME
[4] = target: T2, Free fatty acid receptor 4 (Mus musculus, UniProt Q7TMA4); assay: Agonist activity at mouse GPR120 expressed in CHOK1 cells measured after 60 mins by IP1-HTRF assay; type: functional, cell-based, CHO-K1
T2 sequence (Q7TMA4 whole entry): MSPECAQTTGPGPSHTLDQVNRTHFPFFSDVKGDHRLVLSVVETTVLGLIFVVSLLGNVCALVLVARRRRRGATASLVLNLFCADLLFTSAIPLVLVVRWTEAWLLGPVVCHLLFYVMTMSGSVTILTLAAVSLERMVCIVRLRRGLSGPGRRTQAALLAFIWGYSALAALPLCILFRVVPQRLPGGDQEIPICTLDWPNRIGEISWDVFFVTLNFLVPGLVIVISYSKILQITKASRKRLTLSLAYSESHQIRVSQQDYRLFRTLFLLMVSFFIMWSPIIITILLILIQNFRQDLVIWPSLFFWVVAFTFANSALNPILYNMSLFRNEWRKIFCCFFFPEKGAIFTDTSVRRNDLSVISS

[5] = Oral bioavailability in mouse at 10 mg/kg; type: ADME, organism-based; conditions: in vivo
[6] = Drug uptake in wild-type mouse blood at 100 mg/kg, po; type: ADME, organism-based; conditions: in vivo, read-out: Drug uptake
[7] = Cmax in mouse at 2 mg/kg, iv or 10 mg/kg, po; type: ADME, organism-based; conditions: in vivo
[8] = target: Sodium channel protein type 5 subunit alpha (Homo sapiens, UniProt Q14524); assay: Inhibition of Nav1.5 (unknown origin)
[9] = Clearance in mouse at 2 mg/kg, iv or 10 mg/kg, po; type: ADME, organism-based; conditions: in vivo
Cytochrome P450 2C9 = Cytochrome P450 2C9 (Homo sapiens, UniProt P11712); assay: Inhibition of CYP2C9 (unknown origin); type: ADME
[10] = Drug uptake in GPR120 knockout mouse blood at 100 mg/kg, po; type: ADME, organism-based; conditions: in vivo, read-out: Drug uptake
[11] = Drug uptake in GPR120 knockout mouse blood at 30 mg/kg, po; type: ADME, organism-based; conditions: in vivo, read-out: Drug uptake
[12] = target: T3, Free fatty acid receptor 1 (Homo sapiens, UniProt O14842); assay: Agonist activity at human GPR40 measured after 60 mins by IP1-HTRF assay; type: functional
Mus musculus [13] = assay: In vivo agonist activity at GPR120 in wild-type mouse assessed as target engagement at 30 mg/kg, po; type: functional
[14] = target: T3, Free fatty acid receptor 1; assay: Agonist activity at human GPR40 measured after 60 mins by IP1-HTRF assay relative to basal level; type: functional; set-up: concentration or dose not given beside the values
Mus musculus [15] = assay: Reduction of glucose excursion in GPR120 knockout mouse at 30 and 100 mg/kg, po by oral glucose tolerance test; type: functional, organism-based
Cytochrome P450 3A4 = Cytochrome P450 3A4 (Homo sapiens, UniProt P08684); assay: Inhibition of CYP3A4 (unknown origin); type: ADME
[16] = target: T4, Free fatty acid receptor 4 (Homo sapiens, UniProt Q5NUL3); assay: Agonist activity at human GPR120 expressed in CHOK1 cells measured after 60 mins by IP1-HTRF assay; type: functional, cell-based, CHO-K1
T4 sequence (Q5NUL3 whole entry): T1 sequence (whole entry)

[17] = Drug uptake in wild-type mouse blood at 30 mg/kg, po; type: ADME, organism-based; conditions: in vivo, read-out: Drug uptake
[18] = target: Voltage-dependent L-type calcium channel subunit alpha-1C (Homo sapiens, UniProt Q13936); assay: Inhibition of Cav1.2 (unknown origin)
[19] = Volume of distribution in mouse at 2 mg/kg, iv or 10 mg/kg, po; type: ADME, organism-based; conditions: in vivo
[20] = Half life in mouse at 2 mg/kg, iv or 10 mg/kg, po; type: ADME, organism-based; conditions: in vivo
[21] = target: T5, Free fatty acid receptor 4 (Mus musculus) (UniProt Q7TMA4); assay: Agonist activity at mouse GPR120 expressed in CHOK1 cells measured after 60 mins by IP1-HTRF assay relative to basal level; type: functional, cell-based; set-up: concentration or dose not given beside the values; conditions: CHO-K1
T5 sequence (whole entry): T2 sequence (Q7TMA4 whole entry)

[22] = Antidiabetic activity in wild-type mouse assessed as reduction in glucose excursion at 30 and 100 mg/kg, po by oral glucose tolerance test; type: functional, organism-based
[23] = target: T1, Free fatty acid receptor 4 (Homo sapiens); assay: Agonist activity at human GPR120 expressed in CHO-NFAT cells assessed as increase in calcium efflux at 5 uM by Fluo-4 dye-based FLIPR assay; type: functional, cell-based
[24] = target: T1, Free fatty acid receptor 4 (Homo sapiens); assay: Agonist activity at GPR120 (unknown origin) at 5 uM by PathHunter cell based assay
CHO-K1 = assay: Effect on calcium efflux in CHOK1 cells at 5 uM by Fluo-4 dye-based FLIPR assay; type: functional, Cricetulus griseus
[25] = target: Voltage-gated inwardly rectifying potassium channel KCNH2 (Homo sapiens, UniProt Q12809)

T3 sequence (O14842 whole entry): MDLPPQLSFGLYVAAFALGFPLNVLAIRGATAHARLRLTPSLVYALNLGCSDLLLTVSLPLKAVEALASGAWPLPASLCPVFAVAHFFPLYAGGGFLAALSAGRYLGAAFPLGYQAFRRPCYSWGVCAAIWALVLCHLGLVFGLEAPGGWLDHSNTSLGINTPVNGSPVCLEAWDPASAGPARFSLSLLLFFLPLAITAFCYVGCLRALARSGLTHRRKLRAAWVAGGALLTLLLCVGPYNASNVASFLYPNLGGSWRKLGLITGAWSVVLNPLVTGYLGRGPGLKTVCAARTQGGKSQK
Sequence of Cytochrome P450 2C9 (P11712 whole entry): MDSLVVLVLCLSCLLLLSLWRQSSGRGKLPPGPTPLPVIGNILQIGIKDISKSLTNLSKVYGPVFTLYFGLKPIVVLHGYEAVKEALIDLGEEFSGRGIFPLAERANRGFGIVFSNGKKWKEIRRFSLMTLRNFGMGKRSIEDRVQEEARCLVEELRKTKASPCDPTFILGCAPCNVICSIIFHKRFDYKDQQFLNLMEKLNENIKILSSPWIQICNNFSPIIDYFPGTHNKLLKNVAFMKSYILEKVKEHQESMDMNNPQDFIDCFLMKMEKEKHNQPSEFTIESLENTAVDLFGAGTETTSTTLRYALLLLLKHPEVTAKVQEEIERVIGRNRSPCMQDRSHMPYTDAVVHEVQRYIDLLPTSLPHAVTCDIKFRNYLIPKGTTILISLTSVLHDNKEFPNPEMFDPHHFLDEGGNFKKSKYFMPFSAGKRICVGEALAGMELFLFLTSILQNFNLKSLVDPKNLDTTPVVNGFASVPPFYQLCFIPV
Sequence of Cytochrome P450 2D6 (P10635 whole entry): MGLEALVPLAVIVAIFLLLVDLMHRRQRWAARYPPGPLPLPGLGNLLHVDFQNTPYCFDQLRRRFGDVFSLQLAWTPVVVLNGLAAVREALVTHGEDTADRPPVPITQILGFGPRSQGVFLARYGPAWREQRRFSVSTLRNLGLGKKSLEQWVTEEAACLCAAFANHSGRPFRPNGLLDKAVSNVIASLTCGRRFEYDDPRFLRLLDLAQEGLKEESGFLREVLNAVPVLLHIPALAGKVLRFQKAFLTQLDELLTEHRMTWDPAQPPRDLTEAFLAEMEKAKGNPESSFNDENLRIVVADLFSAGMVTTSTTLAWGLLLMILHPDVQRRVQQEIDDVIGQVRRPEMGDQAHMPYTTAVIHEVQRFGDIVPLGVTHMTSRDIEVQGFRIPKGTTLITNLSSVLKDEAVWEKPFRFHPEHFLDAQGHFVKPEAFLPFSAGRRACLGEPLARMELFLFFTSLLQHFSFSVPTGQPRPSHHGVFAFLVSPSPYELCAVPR
Sequence of Voltage-dependent L-type calcium channel subunit alpha-1C (Q13936 whole entry): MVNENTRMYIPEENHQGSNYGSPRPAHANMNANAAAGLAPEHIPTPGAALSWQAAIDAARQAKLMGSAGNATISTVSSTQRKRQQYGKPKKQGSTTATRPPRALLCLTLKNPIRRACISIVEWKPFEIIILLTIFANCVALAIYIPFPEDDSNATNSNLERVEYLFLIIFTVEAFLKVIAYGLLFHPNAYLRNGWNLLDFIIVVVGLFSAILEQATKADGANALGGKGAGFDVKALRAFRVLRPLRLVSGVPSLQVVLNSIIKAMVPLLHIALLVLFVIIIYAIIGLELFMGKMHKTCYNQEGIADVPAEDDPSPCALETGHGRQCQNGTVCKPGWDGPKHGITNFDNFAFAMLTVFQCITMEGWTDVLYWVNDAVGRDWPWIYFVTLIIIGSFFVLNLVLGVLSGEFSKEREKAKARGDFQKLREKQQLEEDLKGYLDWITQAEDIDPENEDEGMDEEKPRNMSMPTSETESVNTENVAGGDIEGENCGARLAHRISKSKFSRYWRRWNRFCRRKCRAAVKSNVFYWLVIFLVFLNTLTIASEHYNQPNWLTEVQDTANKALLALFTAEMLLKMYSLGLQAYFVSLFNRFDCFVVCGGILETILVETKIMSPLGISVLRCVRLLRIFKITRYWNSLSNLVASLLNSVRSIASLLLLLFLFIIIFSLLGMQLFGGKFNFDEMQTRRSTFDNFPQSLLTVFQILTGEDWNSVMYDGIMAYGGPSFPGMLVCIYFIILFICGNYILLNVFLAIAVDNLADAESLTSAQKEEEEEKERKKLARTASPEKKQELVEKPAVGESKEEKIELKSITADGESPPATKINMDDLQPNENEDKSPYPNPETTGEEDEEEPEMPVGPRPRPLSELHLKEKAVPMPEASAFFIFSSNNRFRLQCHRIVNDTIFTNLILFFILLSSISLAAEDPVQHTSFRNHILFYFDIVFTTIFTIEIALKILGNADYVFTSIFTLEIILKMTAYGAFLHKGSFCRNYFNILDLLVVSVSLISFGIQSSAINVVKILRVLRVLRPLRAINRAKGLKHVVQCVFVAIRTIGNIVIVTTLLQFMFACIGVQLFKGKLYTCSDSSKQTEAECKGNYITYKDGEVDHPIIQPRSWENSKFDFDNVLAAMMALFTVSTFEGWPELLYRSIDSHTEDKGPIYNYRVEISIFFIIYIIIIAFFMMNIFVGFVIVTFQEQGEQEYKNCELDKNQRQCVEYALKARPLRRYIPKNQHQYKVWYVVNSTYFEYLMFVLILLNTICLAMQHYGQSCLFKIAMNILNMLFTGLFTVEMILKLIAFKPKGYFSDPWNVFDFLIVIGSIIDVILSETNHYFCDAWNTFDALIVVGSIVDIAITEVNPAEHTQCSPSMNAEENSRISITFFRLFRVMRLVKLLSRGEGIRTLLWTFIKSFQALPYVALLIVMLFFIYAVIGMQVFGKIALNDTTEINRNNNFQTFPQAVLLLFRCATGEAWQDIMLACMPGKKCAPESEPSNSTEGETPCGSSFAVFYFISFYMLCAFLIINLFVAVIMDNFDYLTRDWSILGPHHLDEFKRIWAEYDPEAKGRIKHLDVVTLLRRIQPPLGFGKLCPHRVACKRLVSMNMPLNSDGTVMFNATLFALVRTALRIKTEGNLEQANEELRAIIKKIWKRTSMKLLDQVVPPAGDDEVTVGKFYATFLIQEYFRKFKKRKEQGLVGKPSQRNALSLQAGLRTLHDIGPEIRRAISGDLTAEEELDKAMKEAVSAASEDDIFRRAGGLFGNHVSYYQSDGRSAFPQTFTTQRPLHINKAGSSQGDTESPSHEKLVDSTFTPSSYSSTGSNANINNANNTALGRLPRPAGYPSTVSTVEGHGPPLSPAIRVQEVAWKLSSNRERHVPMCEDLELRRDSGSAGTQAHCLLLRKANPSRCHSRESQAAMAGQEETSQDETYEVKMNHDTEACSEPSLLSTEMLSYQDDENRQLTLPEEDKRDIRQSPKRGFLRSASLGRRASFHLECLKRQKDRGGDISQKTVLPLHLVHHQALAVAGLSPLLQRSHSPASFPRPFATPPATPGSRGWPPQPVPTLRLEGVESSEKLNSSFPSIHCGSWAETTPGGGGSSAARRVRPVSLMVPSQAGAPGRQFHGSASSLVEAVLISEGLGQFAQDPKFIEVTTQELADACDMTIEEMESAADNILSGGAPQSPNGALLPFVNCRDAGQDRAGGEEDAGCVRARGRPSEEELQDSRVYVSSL
Sequence of Cytochrome P450 3A4 (P08684 whole entry): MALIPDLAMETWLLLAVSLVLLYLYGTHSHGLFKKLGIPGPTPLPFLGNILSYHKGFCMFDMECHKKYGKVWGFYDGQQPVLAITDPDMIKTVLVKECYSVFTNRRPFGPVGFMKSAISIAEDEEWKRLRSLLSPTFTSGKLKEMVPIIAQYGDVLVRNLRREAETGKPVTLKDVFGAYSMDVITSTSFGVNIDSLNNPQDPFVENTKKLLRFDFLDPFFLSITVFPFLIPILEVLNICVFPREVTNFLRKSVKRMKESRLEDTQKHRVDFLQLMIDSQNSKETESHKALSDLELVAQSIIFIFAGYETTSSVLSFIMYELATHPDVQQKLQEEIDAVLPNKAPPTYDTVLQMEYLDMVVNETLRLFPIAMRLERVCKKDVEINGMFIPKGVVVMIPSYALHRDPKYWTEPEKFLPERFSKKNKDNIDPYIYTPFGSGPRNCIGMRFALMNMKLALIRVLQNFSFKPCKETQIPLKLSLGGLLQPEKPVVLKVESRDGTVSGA

Activity [1]	fraction unbound [2]	IC50 (Cytochrome P450 2D6)	EC50 [4]	bioavailability [5]	Cmax [7]	clearance [9]	IC50 (Cytochrome P450 2C9)	EC50 [12]	Activity [14]	IC50 (Cytochrome P450 3A4)	EC50 [16]	Vd [19]	half-life [20]	Activity [21]	SMILES	IC50 [8]	IC50 [18]	also measured
73%	0.002	> 50 µM	0.043 µM	100%	8.17 µM	1.2 L/h/kg	38.3 µM	1.83 µM	38%	> 50 µM	0.063 µM	3 L/kg	1.6 h	75%	O=C(O)CCc1cc2cc(-c3cc(OC(F)(F)F)ccc3F)ccc2o1	> 30 µM	15.1 µM	Activity (Mus musculus [3]): 68%; concentration [6]: 45.1 µM; concentration [10]: 23 µM; concentration [11]: 24.8 µM; Activity (Mus musculus [13]): 40%; Activity (Mus musculus [15]): Active; concentration [17]: 33.4 µM; Activity [22]: Active
24%	0.042		0.487 µM	97%	4.64 µM	1.44 L/h/kg		> 9.95 µM			0.474 µM	5.6 L/kg	3.3 h	29%	O=C(O)CCCOc1ccc(-c2noc3ccccc23)c(Cl)c1Cl			Activity [23]: > 11%; Activity [24]: Active; Activity (CHO-K1): <10%
71%	0.049	> 50 µM	0.009 µM	45%	2.38 µM	1.02 L/h/kg	33 µM	1.04 µM	40%	> 50 µM	0.057 µM	1.86 L/kg	1.3 h	64%	O=C(O)CCCOc1ccc(-c2cc(OC(F)(F)F)ccc2Cl)cc1	17.4 µM	> 30 µM	IC50 [25]: > 60 µM
